Assay in all cases: MIC determination
Common to all, as to assay type: cell-based
Holding throughout (settings): 37 °C, 48 h

For one assay, the system named is Campylobacter coli ZMF. The method, then: (§1) The MIC determinations for Staphylococcus epidermidis ATCC14990, Staphylococcus aureus ATCC6538, Enterococcus faecalis ATCC51299, Klebsiella pneumoniae ATCC13883, Escherichia coli ATCC8739, Salmonella enterica ATCC13076, Helicobacter pylori ATCC43504, Campylobacter jejuni ZMF, Campylobacter coli ZMF, Bacillus cereus PCM 1948,2019 (ATCC11778), and Listeria monocytogenes PCM2191 were performed based on the methodology described by Krauze-Baranowska et al.. The procedure for H. pylori was used in the experiments with Campylobacter strains, and the procedure for B. subtilis was used in the experiments with L. monocytogenes and B. cereus. The tested samples were dissolved in DMSO and diluted with water (concentration of approximately 500 μg/mL). The solutions were diluted geometrically by transferring the mixture/dilution (100 μL) from the first to the twelfth well of the microtiter plate. The final concentrations of samples used for antimicrobial effects ranged from 500 to 0.006 µg/mL. Ampicillin was used as a reference compound in the concentration range of 128 to 0.0625 µg/mL. The tests were incubated at 37 °C for 48 h. The diluent concentration had no effect on the activity of the tested compounds. All experiments were performed in triplicate.

The subject of assay [1] is Listeria monocytogenes PCM2191. The procedure:
as §1

Assay [2] has as its system Helicobacter pylori ATCC43504. The procedure: as §1
For assay [3], the system named is Escherichia coli ATCC8739. The method, then: as §1
The test system of assay [4] is Staphylococcus epidermidis ATCC14990. The method, then:
as §1

Assay [5] relates to Klebsiella pneumoniae ATCC13883. The procedure:
as §1

Assay [6] concerns Salmonella enterica ATCC13076. The method, then: as §1
The subject of assay [7] is Enterococcus faecalis ATCC51299. The procedure:
as §1

Assay [8] relates to Bacillus cereus PCM 1948,2019 (ATCC11778). The procedure: as §1
In a further assay the test system is Campylobacter jejuni ZMF. The method, then: as §1
Assay [9] has as its system Staphylococcus aureus ATCC6538. The procedure: as §1

In brackets after ≈: the same amount, converted by molar mass.

On to `CC1(C)S[C@@H]2[C@H](NC(=O)[C@H](N)c3ccccc3)C(=O)N2[C@H]1C(=O)O` [ampicillin, reference compound], for which the MIC (as a rule, the lowest concentration found to suppress growth) with Campylobacter coli ZMF was 16 µg/mL (≈ 45.8 µM); in assay [1] it was 16 µg/mL (≈ 45.8 µM); in [2], 3.2 µg/mL (≈ 9.16 µM); in assay [3], 3.9 µg/mL (≈ 11.2 µM); in [4], 0.312 µg/mL (≈ 0.894 µM); in assay [5] it was 62.5 µg/mL (≈ 179 µM). Moreover, the MIC in [6] is 0.5 µg/mL (≈ 1.43 µM); in [7], 0.16 µg/mL (≈ 0.458 µM); in [8] it was 125 µg/mL (≈ 358 µM); in the assay with Campylobacter jejuni ZMF it was 32 µg/mL (≈ 91.6 µM); in [9] it was 0.08 µg/mL (≈ 0.229 µM).

Values taken from paper PMC10778824, “New Chalcone Derivatives Containing 2,4-Dichlorobenzenesulfonamide Moiety with Anticancer and Antioxidant Properties” (International Journal of Molecular Sciences, 2023).
